The values that follow come from ChEMBL document CHEMBL4616634, “4β-Hydroxywithanolide E from Goldenberry (Whole Fruits of Physalis peruviana L.) as a Promising Agent against Chronic Obstructive Pulmonary Disease” (J Nat Prod, 2020).

For data set [1], the target named is T1, Nuclear factor erythroid 2-related factor 2 (Homo sapiens) (UniProt Q16236).
T1 sequence (whole entry): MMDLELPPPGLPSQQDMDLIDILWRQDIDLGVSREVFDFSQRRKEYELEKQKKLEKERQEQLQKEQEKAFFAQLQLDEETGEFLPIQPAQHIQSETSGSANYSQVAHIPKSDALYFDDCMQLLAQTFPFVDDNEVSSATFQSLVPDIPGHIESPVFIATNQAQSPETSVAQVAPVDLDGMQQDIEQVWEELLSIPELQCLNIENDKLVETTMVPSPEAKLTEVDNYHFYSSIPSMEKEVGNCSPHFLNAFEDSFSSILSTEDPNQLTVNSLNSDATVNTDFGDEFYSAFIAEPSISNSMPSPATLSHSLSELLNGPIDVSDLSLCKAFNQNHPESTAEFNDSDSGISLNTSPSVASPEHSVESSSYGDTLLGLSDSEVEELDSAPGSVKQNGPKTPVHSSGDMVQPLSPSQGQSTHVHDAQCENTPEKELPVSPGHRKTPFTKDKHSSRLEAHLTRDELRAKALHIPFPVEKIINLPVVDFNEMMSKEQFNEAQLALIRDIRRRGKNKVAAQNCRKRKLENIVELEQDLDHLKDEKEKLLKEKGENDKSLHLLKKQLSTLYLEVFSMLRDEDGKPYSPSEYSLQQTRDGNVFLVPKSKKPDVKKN
Put plainly: Activation of Nrf2 in human BEAS2B cells assessed as increase in Nrf2 accumulation in nucleus at 1 uM incubated for 8 hrs by immunoblot analysis. The format is cell-based.

Data set [2] addresses T1, Nuclear factor erythroid 2-related factor 2 (Homo sapiens). Put plainly: Activation of Nrf2 in human BEAS2B cells assessed as increase in luciferase activity at 0.25 to 2 uM incubated for 18 hrs by dual luciferase reporter gene assay. The format is cell-based.
The test system of data set [3] is Mus musculus. Put plainly: Antiinflammatory activity in C57BL/6 mouse model of CS-induced pulmonary injury assessed as reduction in distinct infiltration of leukocytes in lungs at 2 to 4 mg/kg, ip for 5 days by hematoxylin and eosin staining based fluorescence microscopic analysis. The format is functional, organism-based.
The target in data set [4] is T1, Nuclear factor erythroid 2-related factor 2 (Homo sapiens). Put plainly: Activation of Nrf2 in human MDA-MB-231 cells assessed as increase in NQO1 protein level at 0.5 uM incubated for 16 hrs by immunoblot analysis. The format is cell-based. For orientation: In western blotting, separated proteins are transferred to a membrane and probed.
The target in data set [5] is T2, Nuclear factor erythroid 2-related factor 2 (Mus musculus) (UniProt Q60795).
T2 sequence (whole entry): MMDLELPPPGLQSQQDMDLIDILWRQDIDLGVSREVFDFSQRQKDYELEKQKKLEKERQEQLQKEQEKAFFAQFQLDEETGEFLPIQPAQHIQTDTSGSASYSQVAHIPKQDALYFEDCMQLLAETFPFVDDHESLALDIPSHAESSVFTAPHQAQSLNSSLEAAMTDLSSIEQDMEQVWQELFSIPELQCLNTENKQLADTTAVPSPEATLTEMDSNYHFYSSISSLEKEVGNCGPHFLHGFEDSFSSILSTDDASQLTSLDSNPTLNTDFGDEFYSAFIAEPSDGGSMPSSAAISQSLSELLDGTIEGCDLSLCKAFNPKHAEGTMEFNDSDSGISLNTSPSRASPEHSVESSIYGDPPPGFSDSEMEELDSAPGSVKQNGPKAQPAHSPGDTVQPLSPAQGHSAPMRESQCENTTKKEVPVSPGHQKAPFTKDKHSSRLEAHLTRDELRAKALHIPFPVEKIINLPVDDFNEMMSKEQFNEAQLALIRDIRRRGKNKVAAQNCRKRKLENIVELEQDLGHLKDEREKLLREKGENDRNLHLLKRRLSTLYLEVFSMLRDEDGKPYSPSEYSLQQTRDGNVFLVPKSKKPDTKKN
Put plainly: Activation of Nrf2 in mouse Hepa1c1c7 cells assessed as increase in quinone reductase activity incubated for 24 hrs by MTT based assay. The format is cell-based. Background: Formazan colour is commonly taken as a measure of viable cells.

The target in data set [6] is T1, Nuclear factor erythroid 2-related factor 2 (Homo sapiens). Put plainly: Stabilization of Nrf2 in human BEAS2B cells assessed as protein half life at 1 uM after 8 hrs in presence of CHX by immunoblot analysis (reference value: 12.9 min). The format is cell-based.
Data set [7] has the same target. Put plainly: Activation of Nrf2 in human MDA-MB-231 cells assessed as increase in ARE luciferase activity at > 4 uM incubated for 16 hrs by luciferase reporter gene assay. The format is cell-based. In general terms: In a reporter assay the amount or activity of a reporter protein is the signal.
The test system of data set [8] is RAW264.7. Put plainly: Inhibition of LPS-induced IL-6 protein expression in mouse RAW264.7 cells at 0.5 to 4 uM preincubated for 1 hr followed by LPS-stimulation and measured after 16 hrs by immunoblot analysis. The format is functional, cell-based.
Another data set deals with BEAS-2B. Put plainly: Antioxidant activity in human BEAS2B cells assessed as increase in GSH level at 2 uM incubated for 1 to 12 hrs. The format is functional, cell-based.
Data set [9] has as its target T1, Nuclear factor erythroid 2-related factor 2 (Homo sapiens). Put plainly: Activation of Nrf2 in human MDA-MB-231 cells assessed as increase in GCLM protein level at 0.5 uM incubated for 16 hrs by immunoblot analysis. The format is cell-based.
The subject of data set [10] is Mus musculus. Put plainly: Antiinflammatory activity in C57BL/6 mouse model of CS-induced pulmonary injury assessed as reduction in goblet cell hyperplasia in peribronchial in lungs at 2 to 4 mg/kg, ip for 5 days by hematoxylin and eosin staining based fluorescence microscopic analysis. The format is functional, organism-based.
For the next data set, the system named is MDA-MB-231. Put plainly: Cytotoxicity against human MDA-MB-231 cells assessed as decrease in cell viability at 0.13 to 10 uM after 24 to 48 hrs by MTT assay. The format is cell-based. Conditions: mda-mb-231, 10 µM.
Data set [11] relates to Mus musculus. Put plainly: Antiinflammatory activity in C57BL/6 mouse model of CS-induced pulmonary injury assessed as reduction in TNFapha protein expression in lungs at 2 to 4 mg/kg, ip for 5 days by ELISA. The format is functional, organism-based.
The target in data set [12] is T1, Nuclear factor erythroid 2-related factor 2 (Homo sapiens). Put plainly: Activation of Nrf2 in human BEAS2B cells harboring wild type Keap1 assessed as increase in Nrf2 protein expression at 2 uM after12 hrs in presence of Keap1-siRNA by immunoblot analysis. The format is cell-based.
The subject of data set [13] is Mus musculus. Put plainly: Antiinflammatory activity in C57BL/6 mouse model of CS-induced pulmonary injury assessed as reduction in 8-oxo-dG in lungs at 2 to 4 mg/kg, ip for 5 days by ELISA. The format is functional, organism-based.
The test system of data set [14] is Mus musculus. Put plainly: Antiinflammatory activity in C57BL/6 mouse model of CS-induced pulmonary injury assessed as decrease in NFkappaB p65 protein expression in lungs at 2 to 4 mg/kg, ip for 5 days by immunoblot analysis. The format is functional, organism-based.
In data set [15] the test system is RAW264.7. Put plainly: Inhibition of LPS-induced NFkappaB activation in mouse RAW264.7 cells assessed as decrease in phosphorylated NFkappaB p65 at 0.5 to 4 uM pre-incubated for 1 hr followed by LPS-stimulation and measured after 2 hrs by immunoblot analysis. The format is cell-based.
The target of data set [16] is T1, Nuclear factor erythroid 2-related factor 2 (Homo sapiens). Put plainly: Activation of Nrf2 in human MDA-MB-231 cells assessed as increase in ARE luciferase activity at 2 uM incubated for 16 hrs by luciferase reporter gene assay. The format is cell-based.
Data set [17] deals with RAW264.7. Put plainly: Inhibition of LPS-induced COX2 protein expression in mouse RAW264.7 cells at 0.5 to 4 uM preincubated for 1 hr followed by LPS-stimulation and measured after 16 hrs by immunoblot analysis. The format is functional, cell-based.
In data set [18] the target is T1, Nuclear factor erythroid 2-related factor 2 (Homo sapiens). Put plainly: Activation of Nrf2 in human BEAS2B cells harboring Keap1-C288S mutant assessed as increase in Nrf2 protein expression at 2.5 uM after12 hrs in presence of Keap1-siRNA by immunoblot analysis. The format is cell-based.

Structures are written as SMILES. Calls of active or inactive are those of the source. The rule behind the calls is not given here.

Consider `CC1=C(C)C(=O)O[C@H]([C@](C)(O)[C@]2(O)CC[C@@]3(O)[C@@H]4C[C@H]5O[C@]56[C@@H](O)C=CC(=O)[C@]6(C)[C@H]4CC[C@]23C)C1`, for which the result (in data set [1]; in data set [2]; in the data set with Mus musculus [3]; in [4]; in the data set on BEAS-2B; in data set [9]) was Active. Also, the result (with Mus musculus [10]; with Mus musculus [11]; in [12]; with Mus musculus [13]; in the data set with Mus musculus [14]) was Active. Besides, the results for the Activity result (in data set [5]; in the data set with MDA-MB-231) were “Dose-dependent effect” and “Toxic”, respectively. Besides, the T1/2 in [6] is 34.3 min. Also, the outcome in data set [7] and in data set [18] was inactive. Also, the inhibition result with RAW264.7 [8], with RAW264.7 [15] and in the data set on RAW264.7 [17] was “Active” each time. Besides, the fold change (FC) in data set [16] is 8.5.
